Data taken from ChEMBL document CHEMBL6177960, “Rational design, optimization, and biological evaluation of novel pyrrolo-pyridone derivatives as potent and orally active Cbl-b inhibitors” (Eur J Med Chem, 2025).

Experiments:
in vivo [1] = settings: male, CD-1(ICR), mouse, po, 10 mg/kg
Description: AUClast in male CD-1(ICR) mouse at 10 mg/kg, po measured after 1440 mins by LC-MS/MS analysis

in vivo [2] = settings: male, CD-1(ICR), mouse, po, 10 mg/kg; remark: listed apart in the source
in vitro [3] = settings: dog, hepatocytes
[4] = Inhibition of immunosuppressive activity in PGE2-induced human T cells assessed as increase in IFNgamma production preincubated with PGE2 for 15 mins followed by compound administration for 60 mins and measured after 48 hrs of anti-human CD28 antibody by ELISA; settings: T-cell
[5] = Protein binding in CD-1 mouse plasma assessed as unbound fraction at 5 uM incubated for 5 hrs by equilibrium dialysis based LC-MS analysis
in vitro [6] = settings: mouse, hepatocytes
in vivo [7] = settings: male, CD-1(ICR), mouse, iv, 1 mg/kg
Description: AUClast in male CD-1(ICR) mouse at 1 mg/kg, iv measured after 1440 mins by LC-MS/MS analysis

[8] = Inhibition of immunosuppressive activity in PGE2-induced human T cells assessed as increase in IL2 production preincubated with PGE2 for 15 mins followed by compound administration for 60 mins and measured after 48 hrs of anti-human CD28 antibody by ELISA; settings: T-cell
[9] = Plasma protein binding in Beagle dog at 5 uM incubated for 5 hrs by equilibrium dialysis based LC-MS analysis
4T1 = test: Antitumor activity against mouse 4T1 cells implanted in female BALB/C mouse model assessed as tumor growth inhibition at 30 mg/kg, po relative to control; settings: 4T1, po, read-out: TGI
in vivo [10] = settings: male, CD-1(ICR), mouse, po, 10 mg/kg; remark: listed apart in the source
Description: MRTinfinity in male CD-1(ICR) mouse at 10 mg/kg, po measured after 1440 mins by LC-MS/MS analysis

[11] = Toxicity in female BALB/C mouse model implanted with mouse CT26 cells assessed as effect on body weight at 30 mg/kg, po administered via gavage once daily and measured after 14 days; settings: in vivo, 336 h
[12] = Inhibition of immunosuppressive activity in PGE2-induced human T cells assessed as increase in cell proliferation preincubated with PGE2 for 15 mins followed by compound administration for 60 mins and measured after 72 hrs of anti-human CD28 antibody by flow cytometric analysis
[13] = Protein binding in Sprague-Dawley rat plasma assessed as unbound fraction at 5 uM incubated for 5 hrs by equilibrium dialysis based LC-MS analysis
in vivo [14] = settings: male, CD-1(ICR), mouse, po, 10 mg/kg; remark: listed apart in the source
Description: AUCinfinity in male CD-1(ICR) mouse at 10 mg/kg, po measured after 1440 mins by LC-MS/MS analysis

in vivo [15] = settings: male, CD-1(ICR), mouse, iv, 1 mg/kg; remark: listed apart in the source
Description: Half-life in male CD-1(ICR) mouse at 1 mg/kg, iv measured after 1440 mins by LC-MS/MS analysis

in vivo [16] = settings: male, CD-1(ICR), mouse, iv, 1 mg/kg; remark: listed apart in the source
Description: C0 in male CD-1(ICR) mouse at 1 mg/kg, iv measured after 1440 mins by LC-MS/MS analysis

in vivo [17] = settings: male, CD-1(ICR), mouse, iv, 1 mg/kg; remark: listed apart in the source
Description: Volume of distribution at steady state in male CD-1(ICR) mouse at 1 mg/kg, iv measured after 1440 mins by LC-MS/MS analysis

[18] = Plasma protein binding in human at 5 uM incubated for 5 hrs by equilibrium dialysis based LC-MS analysis
[19] = mouse, in vivo, iv, 1 mg/kg, 24 h
in vivo [20] = settings: male, CD-1(ICR), mouse, po, 10 mg/kg; remark: listed apart in the source
Description: Half-life in male CD-1(ICR) mouse at 10 mg/kg, po measured after 1440 mins by LC-MS/MS analysis

in vitro [21] = settings: human, hepatocytes
in vivo [22] = settings: male, CD-1(ICR), mouse, iv, 1 mg/kg; remark: listed apart in the source
Description: Apparent volume of distribution in male CD-1(ICR) mouse at 1 mg/kg, iv measured after 1440 mins by LC-MS/MS analysis

CT26 [23] = test: Antitumor activity against mouse CT26 cells implanted in female BALB/C mouse model assessed as tumor growth inhibition at 30 mg/kg, po administered via gavage once daily and measured after 14 days relative to control; settings: 336 h, read-out: TGI
in vivo [24] = settings: male, CD-1(ICR), mouse, iv, 1 mg/kg; remark: listed apart in the source
Description: MRTinfinity in male CD-1(ICR) mouse at 1 mg/kg, iv measured after 1440 mins by LC-MS/MS analysis

in vivo [25] = settings: male, CD-1(ICR), mouse, iv, 1 mg/kg; remark: listed apart in the source
Description: AUCinfinity in male CD-1(ICR) mouse at 1 mg/kg, iv measured after 1440 mins by LC-MS/MS analysis

[26] = Plasma protein binding in CD-1 mouse at 5 uM incubated for 5 hrs by equilibrium dialysis based LC-MS analysis
in vitro [27] = settings: rat, hepatocytes
[28] = Toxicity in female BALB/C mouse model implanted with mouse CT26 cells assessed as body weight gain at 10 mg/kg, po administered via gavage once daily and measured after 14 days; format: organism-based; settings: in vivo, 336 h, time 14 day
in vivo [29] = settings: male, CD-1(ICR), mouse, iv, 1 mg/kg; remark: listed apart in the source
Description: Clearance in male CD-1(ICR) mouse at 1 mg/kg, iv measured after 1440 mins by LC-MS/MS analysis

in vivo [30] = settings: male, CD-1(ICR), mouse, po, 10 mg/kg; remark: listed apart in the source
CT26 [31] = test: Antitumor activity against mouse CT26 cells implanted in female BALB/C mouse model assessed as tumor growth inhibition at 10 mg/kg, po administered via gavage once daily and measured after 14 days relative to control; settings: 336 h, read-out: TGI
in vitro [32] = settings: rhesus monkey, hepatocytes
[33] = mouse, in vivo, po, 10 mg/kg, 24 h
[34] = Protein binding in human plasma assessed as unbound fraction at 5 uM incubated for 5 hrs by equilibrium dialysis based LC-MS analysis
[35] = Plasma protein binding in cynomolgus monkey at 5 uM incubated for 5 hrs by equilibrium dialysis based LC-MS analysis
[36] = Plasma protein binding in Sprague-Dawley rat at 5 uM incubated for 5 hrs by equilibrium dialysis based LC-MS analysis
[37] = Protein binding in cynomolgus monkey plasma assessed as unbound fraction at 5 uM incubated for 5 hrs by equilibrium dialysis based LC-MS analysis
in vivo [38] = settings: male, CD-1(ICR), mouse, po, 10 mg/kg; remark: listed apart in the source
in vitro [39] = settings: dog, hepatocytes; remark: listed apart in the source
[40] = Protein binding in Beagle dog plasma assessed as unbound fraction at 5 uM incubated for 5 hrs by equilibrium dialysis based LC-MS analysis

AUC(0-t) at 24 h (in vivo [1]): 789 ng·h/mL | Tmax at 24 h (in vivo [2]): 21.6 min | CLint scaled at 2 h, 2 µM (in vitro [3]): 39.4 mL/min/kg | EC50 [4]: 170 nM | fraction unbound at 5 h, 5 µM [5]: 0.0217 | half-life at 2 h, 2 µM (in vitro [6]): 14.3 min | AUC(0-t) at 24 h (in vivo [7]): 289 ng·h/mL | EC50 [8]: 65.7 nM | fraction unbound at 5 h, 5 µM [9]: 0.0394 | MRT inf at 24 h (in vivo [10]): 89.4 min | fraction unbound at 5 h, 5 µM [13]: 0.0419 | AUC(0-inf) at 24 h (in vivo [14]): 796 ng·h/mL | half-life at 24 h (in vivo [15]): 55.7 min | C0 at 24 h (in vivo [16]): 406 ng/mL | Vd at 24 h (in vivo [17]): 2.91 L/kg | fraction unbound at 5 h, 5 µM [18]: 0.0379 | %AUCextra [19]: 1.2% | half-life at 24 h (in vivo [20]): 69 min | half-life at 2 h, 2 µM (in vitro [21]): 81.8 min | Vd at 24 h (in vivo [22]): 4.66 L/kg | MRT inf at 24 h (in vivo [24]): 60.6 min | AUC(0-inf) at 24 h (in vivo [25]): 292 ng·h/mL | fraction unbound at 5 h, 5 µM [26]: 0.0217 | half-life at 2 h, 2 µM (in vitro [27]): 40.7 min | clearance at 24 h (in vivo [29]): 57.8 mL/min/kg | bioavailability at 24 h (in vivo [30]): 27.2% | half-life at 2 h, 2 µM (in vitro [32]): 12.2 min | %AUCextra [33]: 0.94% | fraction unbound at 5 h, 5 µM [34]: 0.0379 | fraction unbound at 5 h, 5 µM [35]: 0.0179 | fraction unbound at 5 h, 5 µM [36]: 0.0419 | fraction unbound at 5 h, 5 µM [37]: 0.0179 | Cmax at 24 h (in vivo [38]): 480 ng/mL | half-life at 2 h, 2 µM (in vitro [39]): 24.1 min | fraction unbound at 5 h, 5 µM [40]: 0.0394
Compound: C[C@H]1CCCN(Cc2cc3c(C(F)(F)F)cn(-c4cccc([C@]5(c6nncn6C)C[C@@H](C)C5)c4)c(=O)c3[nH]2)C1
inhibition in vivo at 30 mg/kg (4T1): 31.3% | Activity [11]: Non-toxic | EC50 [12]: 1.4 nM | inhibition in vivo at 30 mg/kg (CT26 [23]): 56.1% | Activity [28]: Toxic | inhibition in vivo at 10 mg/kg (CT26 [31]): 12.5%
